From patent US20150183802A1, “TRICYCLIC SULFONAMIDE DERIVATIVES” (NOVARTIS AG, priority 2013, published 2015)
pIC50: −log10 of the molar value.

Target: T1, hNav1.7 channels (Homo sapiens, UniProt Q15858)
T1 construct: host or cells: HEK293
Assay: hNav1.7 channel in vitro patch-clamp assay
Type: cell-based
Settings: stable HEK293 cell line expressing hNav1.7; whole cell patch-clamp (QPatch HTX and/or conventional), room temperature; voltage protocol not given
Method: hNav1.7 Channel In Vitro Patch-Clamp Assay
Cells: Sable HEK293 (human embryonic kidney) cell line expressing hNav1.7 channels was used in the assay. The cell line was obtained from Millipore (Millipore Corporation, MA).
Patch-clamp recordings: The recordings were performed on QPatch HTX (Sophion Bioscience, Denmark) and/or conventional patch-clamp (Axon Multiclamp 700B systems, Molecular Devices, CA) platforms at room temperature, using whole cell patch-clamp techniques. The composition of extracellular solution was (in mM): HEPES 5, NaCl 40, KCl 3, CaCl2 1, MgCl2 1, Choline Chloride 100. Adjust pH to 7.2 with 1N NaOH, osmolarity to 300-310 mOsm with sucrose. The composition of intracellular solution was (in mM): HEPES 10, NaCl 10, Na2ATP 1, MgCl2 2, KF 135, EGTA 10. Adjust pH to 7.2 with 1N NaOH, osmolarity to 290-300 mOsm with sucrose.
For conventional patch-clamp, 35 mm culture dishes containing hNav1.7 cells were placed on the stage of an inverted microscope and continuously perfused with extracellular solution from a perfusion system (Biologic Rapid solution changer, RSC-160, ˜1 ml/min). […] The recordings were controlled by pCLAMP10 software. Test compounds were dissolved in 100% DMSO to make stock solutions for each test concentration, and then diluted into extracellular solution to achieve final concentration for testing. Final DMSO concentration was less than 0.3%. Two voltage protocols were used in hNav1.7 assay: for non-inactivated protocol, the sodium currents were elicited by a 2 ms pulse to −10 mV from a holding potential of −110 mV. For inactivated protocol, the holding potential was set at V1/2. The voltage was firstly stepped to −110 mV for 50 ms, then to −10 mV for 2 ms and then stepped back to holding potential. In both protocols the voltage command was given in every 10 s. Compound effect (% inhibition) was determined by difference in current amplitude before and after the application of test compounds. IC50 values were determined from concentration-response curves that were obtained with Hill fitting.
For QPatch HTX assay, hNav1.7 cells grown to 50%-80% confluence were rinsed with DPBS and dissociated with Tryple (Invitrogen, 12605-010). The dissociated cells were then mixed with extracellular solution. After centrifuge, the cells were resuspended in extracellular solution and used in the QPatch experiment. The whole-cell protocols, voltage protocols and application protocols were established with QPatch Assay Software 3.4 (Sophion Bioscience, Denmark). Only the inactivated protocol was used in the QPatch assay.

T1 sequence (Q15858 whole entry): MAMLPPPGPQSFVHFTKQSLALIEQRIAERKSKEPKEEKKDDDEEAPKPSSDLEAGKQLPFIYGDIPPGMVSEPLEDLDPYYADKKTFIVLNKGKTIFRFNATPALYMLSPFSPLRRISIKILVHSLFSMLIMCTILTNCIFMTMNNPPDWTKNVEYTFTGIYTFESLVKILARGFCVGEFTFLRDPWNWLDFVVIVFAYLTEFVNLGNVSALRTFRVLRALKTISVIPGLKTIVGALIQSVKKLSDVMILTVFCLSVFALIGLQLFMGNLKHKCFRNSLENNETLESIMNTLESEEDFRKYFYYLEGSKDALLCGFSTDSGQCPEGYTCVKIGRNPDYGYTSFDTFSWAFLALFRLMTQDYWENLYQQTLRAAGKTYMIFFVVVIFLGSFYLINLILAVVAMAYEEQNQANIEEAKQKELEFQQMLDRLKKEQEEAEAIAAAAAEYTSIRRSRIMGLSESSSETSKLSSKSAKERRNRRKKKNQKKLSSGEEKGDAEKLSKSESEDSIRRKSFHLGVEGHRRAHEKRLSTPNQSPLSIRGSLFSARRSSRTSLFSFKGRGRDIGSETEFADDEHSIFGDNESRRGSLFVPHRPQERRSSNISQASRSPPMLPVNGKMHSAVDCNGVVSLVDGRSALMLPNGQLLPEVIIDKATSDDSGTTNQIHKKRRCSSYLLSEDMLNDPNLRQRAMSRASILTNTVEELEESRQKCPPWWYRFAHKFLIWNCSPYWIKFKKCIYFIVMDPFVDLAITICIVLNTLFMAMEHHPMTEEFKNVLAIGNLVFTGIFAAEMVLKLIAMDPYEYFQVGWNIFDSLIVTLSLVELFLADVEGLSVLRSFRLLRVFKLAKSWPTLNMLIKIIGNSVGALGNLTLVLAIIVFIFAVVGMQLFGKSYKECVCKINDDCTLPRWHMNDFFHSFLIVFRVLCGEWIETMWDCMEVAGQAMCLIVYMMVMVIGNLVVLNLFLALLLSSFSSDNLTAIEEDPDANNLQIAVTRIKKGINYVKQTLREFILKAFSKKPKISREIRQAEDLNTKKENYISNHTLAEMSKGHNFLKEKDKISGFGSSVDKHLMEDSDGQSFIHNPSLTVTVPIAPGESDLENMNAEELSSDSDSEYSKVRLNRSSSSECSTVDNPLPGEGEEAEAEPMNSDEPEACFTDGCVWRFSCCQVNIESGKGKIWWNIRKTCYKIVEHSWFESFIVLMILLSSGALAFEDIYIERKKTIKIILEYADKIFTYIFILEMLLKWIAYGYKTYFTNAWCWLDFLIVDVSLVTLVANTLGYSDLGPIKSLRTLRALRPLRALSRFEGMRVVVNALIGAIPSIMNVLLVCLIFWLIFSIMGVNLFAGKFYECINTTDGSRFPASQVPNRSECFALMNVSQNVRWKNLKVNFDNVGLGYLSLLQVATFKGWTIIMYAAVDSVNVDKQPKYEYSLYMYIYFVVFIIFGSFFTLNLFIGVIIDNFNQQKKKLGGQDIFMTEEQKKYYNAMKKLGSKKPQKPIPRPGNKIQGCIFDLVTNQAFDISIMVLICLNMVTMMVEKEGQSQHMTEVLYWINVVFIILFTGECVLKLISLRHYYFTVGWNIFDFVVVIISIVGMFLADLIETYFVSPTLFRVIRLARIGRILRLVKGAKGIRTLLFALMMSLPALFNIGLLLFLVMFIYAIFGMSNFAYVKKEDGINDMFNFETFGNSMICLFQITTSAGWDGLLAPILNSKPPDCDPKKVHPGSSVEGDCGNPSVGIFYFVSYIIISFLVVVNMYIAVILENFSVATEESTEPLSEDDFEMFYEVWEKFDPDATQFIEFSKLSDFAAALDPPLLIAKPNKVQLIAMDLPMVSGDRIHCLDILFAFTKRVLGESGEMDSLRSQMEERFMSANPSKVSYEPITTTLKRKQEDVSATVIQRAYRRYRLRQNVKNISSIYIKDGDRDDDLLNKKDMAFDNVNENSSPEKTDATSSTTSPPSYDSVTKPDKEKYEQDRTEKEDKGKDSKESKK

| SMILES | pIC50 |
| --- | --- |
| CC(C)COc1ncc(N2C(=O)C3(CC3)c3cc4c(NS(C)(=O)=O)noc4cc32)cc1Cl [Example 1, N-(7′-(5-chloro-6-isobutoxypyridin-3-yl)-6′-oxo-6′,7′-dihydrospiro[cyclopropane-1,5′-isoxazolo[4,5-f]indol]-3′-yl)methanesulfonamide] | 6.82 |
| COc1ncc(N2C(=O)C3(CC3)c3cc4c(NS(=O)(=O)C5CC5)noc4cc32)cc1Cl [Example 29, N-(7′-(5-chloro-6-methoxypyridin-3-yl)-6′-oxo-6′,7′-dihydrospiro[cyclopropane-1,5′-isoxazolo[4,5-f]indol]-3′-yl)cyclopropanesulfonamide] | 6.10 |
| Cc1nn(-c2cnc(OCC(C)C)c(Cl)c2)c2cc3onc(NS(=O)(=O)C4CC4)c3cc12 [Example 45, N-(7-(5-chloro-6-isobutoxypyridin-3-yl)-5-methyl-7H-isoxazolo[4,5-f]indazol-3-yl)cyclopropanesulfonamide] | 7.52 |
| CC(C)COc1ncc(-c2nccc3cc4c(NS(=O)(=O)C5CC5)noc4cc23)cc1Cl [Example 50, N-(8-(5-chloro-6-isobutoxypyridin-3-yl)isoxazolo[4,5-g]isoquinolin-3-yl)cyclopropanesulfonamide] | 6.96 |
| CC(C)COc1ncc(-c2nn(C)c3cc4c(NS(=O)(=O)C5CC5)noc4cc23)cc1Cl [Example 47, N-(7-(5-chloro-6-isobutoxypyridin-3-yl)-5-methyl-5H-isoxazolo[5,4-f]indazol-3-yl)cyclopropanesulfonamide] | 6.40 |
| Cc1nn(-c2cnc(OCC(C)C)c(Cl)c2)c2cc3onc(NS(C)(=O)=O)c3cc12 [Example 44, N-(7-(5-chloro-6-isobutoxypyridin-3-yl)-5-methyl-7H-isoxazolo[4,54]indazol-3-yl)methanesulfonamide] | 7.00 |
| CC(C)COc1ncc(N2C(=O)C3(CC3)c3cc4c(NS(=O)(=O)C(F)(F)F)noc4cc32)cc1Cl [Example 5, N-(7′-(5-chloro-6-isobutoxypyridin-3-yl)-6′-oxo-6′,7′-dihydrospiro[cyclopropane-1,5′-isoxazolo[4,5-f]indol]-3′-yl)-1,1,1-trifluoromethanesulfonamide] | 6.37 |
| CS(=O)(=O)Nc1noc2cc3c(cc12)C1(CC1)C(=O)N3c1ccc(Cl)c(Cl)c1 [Example 31, N-(7′-(3,4-dichlorophenyl)-6′-oxo-6′,7′-dihydrospiro[cyclopropane-1,5′-isoxazolo[4,5-f]indol]-3′-yl)methanesulfonamide] | 6.10 |
| CCC(C)Oc1ncc(N2C(=O)C3(CC3)c3cc4c(NS(=O)(=O)C5CC5)noc4cc32)cc1Cl (stereo not shown) [Example 24, N-(7′-(6-(sec-butoxy)-5-chloropyridin-3-yl)-6′-oxo-6′,7′-dihydrospiro[cyclopropane-1,5′-isoxazolo[4,5-f]indol]-3′-yl)cyclopropanesulfonamide] | 7.15 |
| CC(C)COc1ncc(-c2ccnc3cc4c(NS(=O)(=O)C5CC5)noc4cc23)cc1Cl [Example 55, N-(8-(5-chloro-6-isobutoxypyridin-3-yl)isoxazolo[5,4-g]quinolin-3-yl)cyclopropanesulfonamide] | 6.07 |
| CC(C)COc1ncc(-c2nccc3cc4c(NS(=O)(=O)N(C)C)noc4cc23)cc1Cl [Example 53, N-(8-(5-chloro-6-isobutoxypyridin-3-yl)isoxazolo[4,5-g]isoquinolin-3-yl)N—N-dimethylsulfamide] | 5.97 |
| CC(C)COc1ncc(N2C(=O)C3(CC3)Oc3cc4c(NS(=O)(=O)C5CC5)noc4cc32)cc1Cl [Example 62, N-(8′-(5-chloro-6-isobutoxypyridin-3-yl)-7′-oxo-7′,8′-dihydrospiro[cyclopropane-1,6′-isoxazolo[5′,4′:4,5]benzo[1,2-b][1,4]oxazin]-3′-yl)cyclopropanesulfonamide] | 7.00 |
| Cc1cnc(-c2cnc(OCC(C)C)c(Cl)c2)c2cc3onc(NS(=O)(=O)C4CC4)c3cc12 [Example 60, N-(8-(5-chloro-6-isobutoxypyridin-3-yl)-5-methylisoxazolo[4,5-g]isoquinolin-3-yl)cyclopropanesulfonamide] | 5.73 |
